{"source": "patent US6376666B1", "about": "(Nauchno-Issledovatelsky Institut Farmakologii Rossiiskoi …, priority 1994, dated 2002)", "key": {"Balb/c mice": {"test_system": "Balb/c mice", "assay": "open-field test, Balb/c mice (passive type of emotional-stress reaction)", "type": "in vivo", "parameters": "key to Total activity: sum of all locomotor activity counts (crossings + rearings) in 3 min", "details": "for Central activity (crossings) / Peripheral activity (crossings) / Total activity / Number of defecations / Vertical activity (rearings): M ± mx", "procedure,_shortened": "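Male mice, 20-22 g, dosed i.p. in water 30 min before a 3-min open-field test after 1 min in darkness; peripheral, central, rearing and total activity plus defecations recorded; Student t-test. Anxiolysis read as Balb/c activation, sedation as C57B1/6 inhibition.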"}, "cats": {"test_system": "cats", "assay": "hemodynamics and activity of intact heart in cats under anesthesia", "type": "in vivo", "details": "cats i.v., doses of 0,5 mg/kg-2,0 mg/kg", "method": "The effects of compounds on the hemodynamics and activity of intact heart were studied in cats under anesthesia. The experiments were carried out under conditions of open chest. The phase curve of aortic blood flow was the main index of cardiac activity. The compounds were administered i.v. in physiological solution. The t-Student' test was used to estimate the statistical significance."}}, "data": [{"smiles": "CCOc1ccc2nc(SCCN3CCOCC3)[nH]c2c1", "note": "[XII, 2-[2-(Morpholino)ethylthio]-5-ethoxybenzimidazole]", "values": [{"measurement": "Central activity (crossings)", "setting": "Balb/c mice; 0.001 mg/kg i.p.", "result": "1.6 ± 1.6"}, {"measurement": "Peripheral activity (crossings)", "setting": "Balb/c mice; 0.001 mg/kg i.p.", "result": "28.9 ± 8.8"}, {"measurement": "Total activity", "setting": "Balb/c mice; 0.001 mg/kg i.p.", "result": "30.3 ± 9.4"}, {"measurement": "Central activity (crossings)", "setting": "Balb/c mice; 0.01 mg/kg i.p.", "result": "2.6 ± 1.4"}, {"measurement": "Number of defecations", "setting": "Balb/c mice; 0.01 mg/kg i.p.", "result": "3.1 ± 0.6"}, {"measurement": "Peripheral activity (crossings)", "setting": "Balb/c mice; 0.01 mg/kg i.p.", "result": "79.8 ± 9.3"}, {"measurement": "Total activity", "setting": "Balb/c mice; 0.01 mg/kg i.p.", "result": "83.2 ± 11.3"}, {"measurement": "Vertical activity (rearings)", "setting": "Balb/c mice; 0.01 mg/kg i.p.", "result": "0.9 ± 0.6"}, {"measurement": "Number of defecations", "setting": "Balb/c mice; 0.05 mg/kg i.p.", "result": "2.0 ± 0.8"}, {"measurement": "Peripheral activity (crossings)", "setting": "Balb/c mice; 0.05 mg/kg i.p.", "result": "37.1 ± 6.7"}, {"measurement": "Total activity", "setting": "Balb/c mice; 0.05 mg/kg i.p.", "result": "37.1 ± 6.7"}, {"measurement": "Number of defecations", "setting": "Balb/c mice; 0.1 mg/kg i.p.", "result": "2.4 ± 0.7"}, {"measurement": "Peripheral activity (crossings)", "setting": "Balb/c mice; 0.1 mg/kg i.p.", "result": "70.6 ± 10.6"}, {"measurement": "Total activity", "setting": "Balb/c mice; 0.1 mg/kg i.p.", "result": "73.7 ± 12.7"}, {"measurement": "Central activity (crossings)", "setting": "Balb/c mice; 0.5 mg/kg i.p.", "result": "2.9 ± 1.5"}, {"measurement": "Number of defecations", "setting": "Balb/c mice; 0.5 mg/kg i.p.", "result": "1.6 ± 0.8"}, {"measurement": "Peripheral activity (crossings)", "setting": "Balb/c mice; 0.5 mg/kg i.p.", "result": "77.6 ± 14.2"}, {"measurement": "Total activity", "setting": "Balb/c mice; 0.5 mg/kg i.p.", "result": "80.5 ± 15.7"}, {"measurement": "Central activity (crossings)", "setting": "Balb/c mice; 1.0 mg/kg i.p.", "result": "0.5 ± 0.3"}, {"measurement": "Number of defecations", "setting": "Balb/c mice; 1.0 mg/kg i.p.", "result": "2.8 ± 0.9"}, {"measurement": "Peripheral activity (crossings)", "setting": "Balb/c mice; 1.0 mg/kg i.p.", "result": "66.3 ± 11.1"}, {"measurement": "Total activity", "setting": "Balb/c mice; 1.0 mg/kg i.p.", "result": "66.8 ± 11.4"}, {"measurement": "Central activity (crossings)", "setting": "Balb/c mice; 5.0 mg/kg i.p.", "result": "2.3 ± 1.5"}, {"measurement": "Number of defecations", "setting": "Balb/c mice; 5.0 mg/kg i.p.", "result": "0.8 ± 0.5"}, {"measurement": "Peripheral activity (crossings)", "setting": "Balb/c mice; 5.0 mg/kg i.p.", "result": "43.0 ± 4.4"}, {"measurement": "Total activity", "setting": "Balb/c mice; 5.0 mg/kg i.p.", "result": "45.3 ± 5.9"}, {"measurement": "Central activity (crossings)", "setting": "Balb/c mice; 10.0 mg/kg i.p.", "result": "0.9 ± 0.3"}, {"measurement": "Number of defecations", "setting": "Balb/c mice; 10.0 mg/kg i.p.", "result": "2.0 ± 0.7"}, {"measurement": "Peripheral activity (crossings)", "setting": "Balb/c mice; 10.0 mg/kg i.p.", "result": "54.8 ± 8.3"}, {"measurement": "Total activity", "setting": "Balb/c mice; 10.0 mg/kg i.p.", "result": "55.7 ± 8.6"}, {"measurement": "Central activity (crossings)", "setting": "Balb/c mice; 30.0 mg/kg i.p.", "result": "1.1 ± 0.7"}, {"measurement": "Number of defecations", "setting": "Balb/c mice; 30.0 mg/kg i.p.", "result": "4.5 ± 1.4"}, {"measurement": "Peripheral activity (crossings)", "setting": "Balb/c mice; 30.0 mg/kg i.p.", "result": "50.5 ± 7.9"}, {"measurement": "Total activity", "setting": "Balb/c mice; 30.0 mg/kg i.p.", "result": "51.7 ± 8.7"}, {"measurement": "Vertical activity (rearings)", "setting": "Balb/c mice; 30.0 mg/kg i.p.", "result": "0.1 ± 0.1"}, {"measurement": "Number of defecations", "setting": "Balb/c mice; 50.0 mg/kg i.p.", "result": "1.6 ± 0.5"}, {"measurement": "Peripheral activity (crossings)", "setting": "Balb/c mice; 50.0 mg/kg i.p.", "result": "11.0 ± 1.6"}, {"measurement": "Total activity", "setting": "Balb/c mice; 50.0 mg/kg i.p.", "result": "11.0 ± 1.6"}, {"measurement": "effect on the behavior (locomotor activity) of Balb/c mice in open-field test, in words", "setting": "Balb/c mice; i.p., screening", "result": "able to activate the behavior of Balb/c mice"}, {"measurement": "effect on heart rate, in words", "setting": "cats", "result": "small and short bradycardia"}]}]}
